Measured values published in patent US9302012B2, “Anti-bacterial siderophore-aminopenicillin conjugates” (University of Notre Dame Du Lac, priority 2012, dated 2016).

Tested on: collection of strains of P. aeruginosa
Test: Agar well diffusion test (several strains)
Format: cell-based, Pseudomonas aeruginosa
Settings: control samples
Protocol: Conjugates 10 and 11 were first evaluated for their antibacterial ability against a collection of strains of P. aeruginosa using the agar well diffusion test. The influence of iron concentration on antibacterial activity was probed as well by conducting assays in iron-rich and iron-deficient media.
All liquids and media were sterilized by autoclaving (121° C., 15 min) before use. All aqueous solutions and media were prepared using distilled, deionized, and filtered water (Millipore Milli-Q Advantage A10 Water Purification System). Luria broth (LB) was purchased from VWR. Mueller-Hinton No. 2 broth (MHII broth; cation adjusted) was purchased from Sigma-Aldrich (St. Louis, Mo.). Iron-deficient (—Fe) MHII broth was prepared by adding 0.8 mL of a 1 mg/mL sterile aq. solution of 2,2′-bipyridine to 49.2 mL of MHII broth. Iron-rich (+Fe) MHII broth was prepared by adding 0.8 mL of a 1 mg/mL sterile aq. solution of FeCl3 to 49.2 mL of MHII broth. Mueller-Hinton No. 2 agar (MHII agar; HiMedia Laboratories) was purchased from VWR. Iron-deficient (−Fe) MHII agar was prepared by adding 0.5 mL of a 1 mg/mL sterile aq. solution of 2,2′-bipyridine to 34 mL of melted MHII agar with gentle mixing. Iron-rich (+Fe) MHII agar was prepared by adding 0.5 mL of a 1 mg/mL sterile aq. solution of FeCl3 to 34 mL of melted MHII agar with gentle mixing. See also Wencewicz, T. A. Dissertation, University of Notre Dame, Notre Dame, Ind., 2011, for relevant techniques.
Antibacterial Susceptibility Testing by the Agar Diffusion Assay.
Antibacterial activity of the compounds was determined by a modified Kirby-Bauer agar diffusion assay. Overnight cultures of test organisms were grown in LB broth for 18-24 h and standard suspensions of […] were prepared in saline solution (0.9% NaCl) according to a 0.5 BaSO4 McFarland Standard. This standardized suspension (0.1 mL) was added to 34 mL of sterile, melted agar (−Fe or +Fe) tempered to 47-50° C. After gentle mixing, the inoculated agar media was poured into a sterile plastic petri dish (145 mm×20 mm) and allowed to solidify near a flame with the lid ajar for about 30 min. Wells of 9.0 mm diameter were cut from the petri dish agar and filled with exactly 50 μL of the test sample solution. The petri dish was incubated at 37° C. for 18-24 h and the inhibition zone diameters were measured (mm) with an electronic caliper after 24 h.

| Structure (SMILES) | inhibitory effect in the agar well diffusion test |
| --- | --- |
| CC(=O)Oc1cccc(C(=O)NCCCC(CCCNC(=O)c2cccc(OC(C)=O)c2OC(C)=O)(CCCNC(=O)c2cccc(OC(C)=O)c2OC(C)=O)NC(=O)CCC(=O)O)c1OC(C)=O [Compound 9] | did not show any inhibitory effect |
| CC(=O)Oc1cccc(C(=O)NCCCC(CCCNC(=O)c2cccc(OC(C)=O)c2OC(C)=O)(CCCNC(=O)c2cccc(OC(C)=O)c2OC(C)=O)NC(=O)CCC(=O)N[C@@H](C(N)=O)c2ccccc2)c1OC(C)=O [Compound S1] | did not show any inhibitory effect |
